Values after ≈ are worked out from the molar mass of the structure shown. Where a SMILES comes first, the peptide text is derived from it. [ ]: non-standard residue; d: D form.
Tests used:
[1] = test system: MRSA SAP400, a USA400 strain; assay: microbe, parasite or virus in culture; settings: USA400
Method: (§1) Subcultures, prepared by inoculating 25 mL of fresh tryptic soy broth (TSB) with 200 μL of an overnight culture, were grown to log phase (OD600 = 0.3–0.6), after which cell counts were determined by measuring the OD600 (1.0 = 5 × 10^8 CFU/mL for E. coli, 4 × 10^8 CFU/mL for K. pneumoniae, 4 × 10^8 CFU/mL for P. aeruginosa, 1.5 × 10^8 CFU/mL for S. aureus). Bacterial cells were diluted to appropriate concentrations in TSB. We used the following clinical bacterial isolates of Klebsiella pneumoniae in this study: Strains KP6, KP46, NDM-1, KP396, and KP398 have been previously described.[43] ST58 strains C2, C3, and I2 are also described.[41] […] MRSA, […] S. aureus strain, is SAP400, a USA400 strain of community-acquired MRSA. […] The second independent set of K. pneumoniae isolates are previously described.[20],[21]
(§2) The antibiotics were serially diluted by a factor of 2:3 horizontally across 96-well plates from Corning, 25 μL per well. One column was reserved for controls. For the assays performed in the presence of RBC, type O+ human RBCs at 0 or 2.5 × 10^9 cells/mL were added in 50 μL aliquots to all wells. Following a 30-min incubation, 50 μL of TSB, inoculated with 5 × 10^5 CFU/mL, was added to all wells, and plates were incubated overnight at 37 °C. Following overnight incubation at 37 °C, the OD600 was measured (values of less than 0.1 were considered sterilized). To assess bacterial growth in the assays with RBC, the OD600 was measured after a second-day inoculation with 10 μL of solution from the original plate added to 100 μL of sterile TSB followed by overnight incubation.
(§3) Experiments were repeated four to eight times independently, with pairs of replicate measurements on each 96-well plate. After overnight growth, optical densities were measured at 660 nm and the sterilized wells were identified by having O.D. < 0.08. Nonsterilized wells were nearly opaque with OD > 0.6. For each measurement, we recorded the largest dilution that sterilized the bacteria. Statistics are done on dilution numbers, rather than calculated concentrations, because only the former have normal distributions.

[2] = test system: Pseudomonas aeruginosa clinical isolates; assay: microbe, parasite or virus in culture; settings: clinical isolates
Method: as §1, §2, §3

[3] = test system: P. aeruginosa wound biofilms; assay: SEM of Tegaderm wound dressing, P. aeruginosa; format: in vivo, CD1 mice; settings: dressing removed on Day 3, treated three times a day
Text: The Tegaderm dressing used in the murine wound model is an excellent substrate for bacterial adhesion and biofilm formation.[5],[15] […] We imaged three to four randomly selected areas of each Tegaderm sample at two magnifications each. Each image is scored for the presence/absence of bacterial cells, either rod-shaped P. aeruginosa, ∼1 μm in diameter, or spherical MRSA cocci, ∼0.9 μm in diameter. Images are also scored for biofilm-like structures defined by having multiple bacteria embedded in an obvious three-dimensional matrix. These distinctions are shown by representative images of the fixed Tegaderm dressings in Figure 9A,B. In vehicle control samples, we observed that P. aeruginosa frequently forms an open, three-dimensional matrix in which many cells are entangled in μm-long fibers. We observed that MRSA also forms a matrix in which cells are close-packed in strands that comprise a large-scale mesh. Every SEM image (68/68) from vehicle control samples of the two bacteria contained obvious visible bacteria, and most of these images contained ≥50 individual cells. In samples from peptide-treated animals, 57 of 68 (84%) of images had no visible bacteria. […] We performed a statistical analysis of observed bacteria and biofilms using the binomial equation. P-values for all comparisons of treated vs vehicle were less than 0.001. […]

wound infections = assay: Murine wound model, once or twice per day dosing and viscous polymer formulations; format: in vivo, mice; settings: 75 μg of peptide in 20 μL of buffer (PBS)
Text: Preliminary data had shown that once per day treatments in a simple aqueous vehicle were ineffective against wound infections in this model, see Figure S2. Three times per day is required for efficacy in simple media, Figure 8. Therefore, we also tested the effectiveness of D-CONGA-Q7 formulated in aqueous suspensions of carboxymethyl cellulose and Xanthan gum, which are anionic carbohydrate polymers that create highly viscous solutions at ∼1% w/v concentration. […] Clinically useful formulations of these peptides may be straightforward to develop.
Figure S2. Activity of D-CONGA-Q7 in wound model using 1x and 2x per day administration. Experiments were performed as described in main text, except that treatments with 75 μg of peptide in 20 μL of buffer were administered only once or twice per day. Bacterial […]
in PBS. Also, Tegaderm biofilm formation is not inhibited by peptide under these conditions.
Results for three times per day administration are shown in Figs. 8&9 of the main manuscript.
(1 picture or pasted object on this page, not shown here)
Radial diffusion results Murine wound infection
A C 6 hour incubation E 10 Once per day treatment with:
1.0 Buffer and viscous polymers D-CONGA-Q7 in 0.75% CMC
Peptide concentration (µM)
B D 24 hour incubation Once per day treatment with:
Buffer and viscous polymers 0.75% XG Vehicle only
1.0% XG D-CONGA-Q7 in 0.75% XG […]

K. pneumoniae isolates = assay: Susceptibility of all K. pneumoniae isolates (both sets); format: cell-based, Klebsiella pneumoniae; settings: both sets of clinical isolates
Text: In parallel experiments, resistance of P. aeruginosa to multiple conventional antibiotics grew rapidly over just a few passages.[5] […] The mechanism of resistance avoidance is currently unknown. Further studies will be required to understand the mechanistic basis for the resistance avoidance of D-CONGA-Q7 against K. pneumoniae isolates. These insights will be particularly important for the advancement of resistance-avoiding AMPs into the clinic.

For CC(C)C[C@@H](NC(=O)[C@@H](CCC(N)=O)NC(=O)[C@@H](CCCNC(=N)N)NC(=O)[C@@H](CCCNC(=N)N)NC(=O)[C@@H](C)NC(=O)[C@@H](Cc1c[nH]c2ccccc12)NC(=O)[C@@H](CCCNC(=N)N)NC(=O)[C@H](N)CCCNC(=N)N)C(=O)N[C@H](C)C(=O)N[C@H](Cc1ccccc1)C(=O)N[C@H](C)C(=O)N[C@H](Cc1ccccc1)C(=O)N[C@H](CCCNC(=N)N)C(=O)N[C@H](CCCNC(=N)N)C(N)=O [D-CONGA-Q7] (H-[dR][dR][dW][dA][dR][dR][dQ][dL][dA][dF][dA][dF][dR][dR]-NH2; N-terminus assumed), the “MIC, MRSA USA400” value [1] was 1.5 µM (≈ 2.83 µg/mL), the “MIC, PA(mucoid)” value [2] was 4.2 µM (≈ 7.93 µg/mL) and the “MIC, PA(non-mucoid)” value [2] was 1.1 µM (≈ 2.08 µg/mL). The “P. aeruginosa: Bacteria present (SEM images of Tegaderm)” value ([3]; images with bacteria / all random images) was 8/33, the “P. aeruginosa: Biofilm present (SEM images of Tegaderm)” value ([3]; images with biofilm / all random images) was 0/33 and the “Tegaderm biofilm formation, once or twice per day administration” value (wound infections) was “not inhibited”. The “Wound bacterial burden, once or twice per day administration” value (wound infections) was “not reduced significantly” and the “K. pneumoniae isolates susceptible” value (K. pneumoniae isolates) was 28 of 29.

Reference: publication PMC10111420, “Optimization of Host Cell-Compatible, Antimicrobial Peptides Effective against Biofilms and Clinical Isolates of Drug-Resistant Bacteria” (ACS Infectious Diseases, 2023)
